Measurements as given in a melting point compilation (Tetko et al.; mined from patent text by program, amines drawn as free bases though some values may be those of a salt).

Row | melting point [°C] | Compound
1 | 77 to 80 | Cc1cccc2c(=O)c3ccccc3ccc12
2 | 92 | Cc1cc2c(N=C=S)cccc2cn1
3 | 149 | Cc1nc2cccc(Cl)c2c(=O)o1
4 | 189 to 191 | COC(=O)C[C@@H](N)c1ccc(NC(=O)Cc2ccc(NC(=O)Nc3ccccc3C)c(OC)c2)cc1
5 | 180 to 183 | N#Cc1cc(O)cc2nc(-c3ccc(O)cc3)oc12
6 | 130 to 132 | Cc1c(C(C)N(O)C(N)=O)sc2ccccc12 (stereo not drawn)
7 | 130 to 131 | c1ccc(CN2CCN(Cc3n[nH]c4ccccc34)CC2)cc1
8 | 212 to 215 | CN1CC[C@@H](c2c(O)cc(O)c3c(=O)cc(-c4ccccc4)oc23)[C@@H]1CO
9 | 215 to 216 | NC(=O)c1ccc(-c2ccc(O)cc2)cc1Cl
10 | 133 to 135 | CCOC(=O)c1c(N(C(C)=O)C(C)=O)c2cccnc2n(CC)c1=O
11 | 215 to 218 | CCCCN1Cc2c([nH]c3ccccc23)C1=O
12 | 96 to 100 | OC1Cc2ccc3ccccc3c21 (stereo not drawn)
13 | 180 to 182 | O=C(O)Cc1ccc2c(c1)CC(CNS(=O)(=O)c1ccc3ccccc3c1)C2 (stereo not drawn)
14 | 95 to 109 | CCC1(NC(=O)C(Br)CCl)COCOC1 (stereo not drawn)
15 | 148 to 150 | CN(C)CC1CCc2cc(NC(=O)c3ccc(-c4ccc(N)cc4)cc3)ccc2C1 (stereo not drawn)
16 | 80 to 95 | CCOC(=O)CCCCCN1CCC[C@@H](NCc2ccccc2OC)[C@H]1c1ccccc1 (racemic)
17 | 64.5 to 65.5 | CC(C)OC(=O)Nc1cc(C2CC2)on1
18 | 118 | CCCCCCNc1nc(SC)[nH]c2nccc1-2
19 | 171 to 173 | COc1ccc(Cl)cc1NC(=O)NCC(=O)c1ccccc1
20 | 230 to 240 | CCOC(=O)Nc1cc(N(C)C)nc2nc(=O)on12
21 | 347 to 349 | NC(=O)c1nc(-c2ccccn2)nc2c1[nH]c(=O)n2-c1ccccc1
22 | 246 to 252 | NC(=O)c1c(I)c(C(=O)NC(CO)CO)c(I)c(C(=O)NC(CO)CO)c1I
23 | 167 to 169 | Cc1ccccc1CC(=NC#N)NC(NC(=O)Cc1ccc2c(c1)OCO2)C(C)(C)C (stereo not drawn)
24 | 146 to 148 | CC(C)C(NC(=O)OCc1csc(N2CCCC2)n1)C(=O)NC(Cc1ccccc1)CC(O)C(Cc1ccccc1)NC(=O)OCc1cncs1 (stereo not drawn)

Row | melting point [°C] | Compound
25 | 164 to 165 | CC1Nc2ccccc2C(=O)N1CCN1CCC(c2noc3cc(F)ccc23)CC1 (stereo not drawn)
26 | 182 to 184 | N#Cc1c[nH]cc1-c1ccc(Cl)cc1C(=O)c1ccccc1Cl
27 | 135 to 137 | Cc1ccc(C=CC(C#N)=NO)cc1
28 | 217 to 220 | COc1cc2ncc(CO)c(-c3ccnc(NN)c3)c2cc1OC
29 | 199 to 200 | CCNC(=S)Nc1nc2ccc(OC(F)(F)F)cc2s1
30 | 239 to 240 | Nc1nc(N)nc(-c2ccc(-c3ccccc3)c3ccccc23)n1
31 | 150 to 151 | CSC(Nc1cccc(CNC(=O)OC(C)(C)C)c1)=C(C#N)C#N
32 | 142 to 144 | CC(C)n1nc(-c2sc(NC(=O)CNCCO)nc2-c2ccccc2)ccc1=O
33 | 247 to 249 | CN(C)CCNC(=O)NCc1ccc2c(c1)-c1[nH]nc(-c3ccsc3)c1C2
34 | 186 to 188 | CC(=O)NC[C@H]1CN(c2cc(F)c(N3CCC(n4cccc4)CC3)c(F)c2)C(=O)O1
35 | 173 to 175 | c1ccc(C(CC2=NCCN2)c2ccccc2)cc1
36 | 94 | CC(=O)N1C(=O)OC[C@H]1c1ccccc1
37 | 78 to 79 | CC(C)OC(=O)N(O)CCN1CCCCC1
38 | 135 to 145 | C1=C2c3ccccc3C3CC2(CN1Cc1ccccc1)c1ccccc13 (stereo not drawn)
39 | 80 to 81 | CNCC(O)c1ccc(CO)cc1 (stereo not drawn)
40 | 243 to 244 | CC(C)(C)OC(=O)NCc1ccc(-n2c(-c3cccnc3N)nc3ccc(-c4cn[nH]c4)nc32)cc1
41 | 108 to 109 | COc1cc2c(c3c1OC(C)(C)C3)C(c1cccc(N(C)C(N)=O)c1)=NC(C)(C)C2
42 | 219 to 220 | Cc1nc(Sc2cc(C(=O)O)nc3ccccc23)sc1CC(=O)O
43 | 70 to 71 | N#CC(C#N)=C1N(CCCN2CCCC2)CCN1CCN1CCCC1
44 | 100 to 102 | c1ccc2cc(OCc3ccc4ccccc4n3)ccc2c1
45 | 221 to 223 | CN(C)CCCOc1ccc(-c2nn(CC(=O)O)c3ncccc23)cc1
46 | 185 to 186 | O=C(O)Cc1cnn(-c2ccccc2)c1-c1ccc(Cl)cc1
47 | 131 to 132 | CCOC(=O)c1c(C)nc(S)c([N+](=O)[O-])c1NCCCN(C)C
48 | > 260 | CCc1cc2[nH]c(=O)c(-c3ccccc3)cc2c(CC)n1

Row | melting point [°C] | Compound
49 | 155 to 157 | CN(c1ccccc1)N1C(=O)C(Cl)=C(c2ccc(Cl)cc2)C1=O
50 | 143 | CCN1CCc2ccc(Nc3ncc(Cl)c(N[C@H]4CCCC[C@H]4C(=O)NC)n3)cc2CC1 (relative stereo)
51 | 282 to 284 | O=c1c2c(Cc3ccccc3[N+](=O)[O-])n[nH]c2c2cccnc2n1-c1cccc(C(F)(F)F)c1
52 | 213 to 215 | COc1cc2nc(Cl)nc(Cl)c2c(OC)c1OC
53 | 141 to 144 | CC(C)C(NC(=O)OCC1c2ccccc2-c2ccccc21)C(=O)Nc1n[nH]c(=S)s1 (stereo not drawn)
54 | 53 to 55 | Cc1oc2ccccc2c1OC(C)(C)C#N
55 | 72 | O=C(O)c1cccc(OCCCCCCc2cccc(OCc3ccccc3)c2OCc2ccccc2)c1
56 | 112 | CCCCCCCCc1ccc(CCC(COC(C)=O)(COC(C)=O)NC(C)=O)cc1
57 | 168 to 169 | COc1cc2c(cc1OC)C(Cc1ccncc1)(Cc1ccncc1)CN=C2c1ccccc1
58 | 172 to 173 | COc1ccc(C(=O)Nc2ccccc2)cc1NC(=S)Nc1ccc(Cl)c(C(F)(F)F)c1
59 | 199 to 200 | Cc1ccc(-c2[nH]c(C3CCCCC3)nc2C(=O)Nc2nccs2)cc1
60 | 169 to 170 | CCC(CC)N(O)C(=O)Nc1ccc([N+](=O)[O-])cc1
61 | 118 to 120 | CC(=O)SCCC(=O)N1c2ccc(C)cc2CCC1C(=O)O (stereo not drawn)
62 | 167 to 168 | CC(=O)NC[C@H]1CN(c2ccc(N3C[C@H]4CN(C(=O)CO)C[C@H]4C3)c(F)c2)C(=O)O1
63 | < 70 | CCOC(=O)c1ccc(-c2ccc(-c3ccccc3)cc2-c2ccc3c(c2)C(C)(C)CCC3(C)C)cc1O
64 | 191 to 192 | CCOC(=O)c1ccc(Oc2cccc3[nH]c4cnc(C(=O)OC(C)C)c(COC)c4c23)o1
65 | 101 to 102 | CSc1nc2cccccc-2n1
66 | 140 to 141 | CC(=O)c1cccc(Oc2cccc(-c3cccc(C(=O)NCCC#N)c3)n2)c1
67 | 93 | Nc1cc(-n2c(=O)oc3c(c2=O)CCC3)c(F)cc1Cl
68 | > 300 | O=C(O)c1ccccc1Sc1c(O)c2ccc(Cl)cc2[nH]c1=O
69 | 129 to 131 | CC(C)(Oc1ccc(COCc2ccc3cn(-c4ccc(C(F)(F)F)cc4)nc3c2)cc1)C(=O)O
70 | 147 to 149 | CCCc1nc2c(N)nc3ccc(C)cc3c2s1

Row | Compound | melting point [°C]
71 | CCOC(=O)c1cccc2c1C(=O)N(C)Cc1c(C(=O)OCC)ncn1-2 | 136 to 140
72 | Cc1cc(Oc2ccc(C(F)(F)F)cc2Cl)cc(C)c1NC(=O)C1C(=O)N(C)C(=S)N(C)C1=O | 171 to 173
73 | COc1cc(N2CCNCC2)cc(OC)c1OC | 73 to 77
